From article PMC9421655, “Novel Antagonist of the Type 2 Lysophosphatidic Acid Receptor (LPA2), UCM-14216, Ameliorates Spinal Cord Injury in Mice” (Journal of Medicinal Chemistry, 2022)
Where two headings read alike, the source gives them in different places.

Experiments:
LPA2 [1] = target: T1, LPA2 (Homo sapiens, UniProt Q9HBW0); assay: Ca2+ mobilization assay, antagonist activity at LPA2; assay type: cell-based; conditions: for IC50: antagonism of 10 μM LPA, mean ± s.e.m.
T1 construct: expressed in transfected cells
T1 sequence (Q9HBW0 whole entry, species assumed): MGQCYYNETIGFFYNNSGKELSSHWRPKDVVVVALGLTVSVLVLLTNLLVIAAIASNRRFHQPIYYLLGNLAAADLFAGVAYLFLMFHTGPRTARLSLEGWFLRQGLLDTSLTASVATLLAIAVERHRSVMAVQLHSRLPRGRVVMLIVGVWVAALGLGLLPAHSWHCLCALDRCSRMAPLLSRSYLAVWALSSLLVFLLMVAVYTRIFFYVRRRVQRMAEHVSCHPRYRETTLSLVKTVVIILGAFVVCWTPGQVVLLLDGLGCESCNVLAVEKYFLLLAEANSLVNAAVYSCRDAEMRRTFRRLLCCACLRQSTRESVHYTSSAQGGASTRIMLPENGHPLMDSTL
Experimental: (§1) Cells stably expressing the corresponding LPA1–3 receptor were grown as described previously.[18] Changes in intracellular calcium levels were measured by using the fluorescent calcium sensitive dye Fluo-4 NW (Invitrogen). RH7777 cells or B103 cells were plated on poly-D-lysine or collagen coated, respectively, black-wall clear-bottom 96-well plates (Corning) at a density of 50 000 cells/well and cultured overnight. The culture medium was then replaced with 100 μL of Fluo-4 NW dye loading solution containing 2.5 μM of probenecid and incubated for 30 min at 37 °C followed by an additional 30 min at rt. […] Fluorescence changes were registered in a FluoStar Optima instrument (BMG Labtech) at 525 nm using an excitation wavelength of 494 nm. […] The data presented are from two to four independent experiments carried out in triplicate or quadruplicate. Dose–response curves were generated and IC50 values calculated by nonlinear regression analysis using Prism software version 5 (GraphPad Software Inc., San Diego, CA, USA).
Figure S2. Dose response curves for compounds 13, 44, 53, 54, and 55. B103 cells stably expressing LPA2 receptor were incubated with different concentrations of the compound under study and […]
Curves were generated with PRISM software version 5 (GraphPad Software Inc, San Diego, CA, USA) using nonlinear regression analysis. Each data point corresponds to the mean±SEM of two to four independent experiments carried out in triplicate or quadruplicate.

[2] = Metabolic stability in human liver microsomes; assay type: in vitro ADME; conditions: male, liver microsomes (pooled), 1 mg/mL protein, NADPH, 37 °C, read-out: stability (t1/2, min) HLMs
Experimental: (§2) Reactions were initiated by the addition of a suspension of mouse liver microsomes (MLMs) (male CD-1 mice pooled, Sigma-Aldrich) or human liver microsomes (HLMs) (male human pooled, Sigma-Aldrich), respectively, at a final protein concentration of 1 mg/mL. […] Aliquots of 100 μL were quenched at time zero and at seven points ranging to 2 h (MLM) or 4 h (HLM) by pouring into 100 μL of ice-cold acetonitrile. […] The relative disappearance of the compound under study over the course of the incubation was monitored by HPLC-MS using SIM mode. Concentrations were quantified by measuring the area under the peak ([M + H]^+) normalized with an internal standard and converted to the percentage of compound remaining, using the time zero peak area value as 100%. The natural logarithm of the remaining percentage versus time data for each compound was fit to a linear regression, and the slope was used to calculate the degradation half-life (t1/2).

LPA1 [3] = target: T2, LPA1 (Homo sapiens, UniProt Q92633); assay: cell-based; set-up: Emax: dose or concentration left out as unconfirmed
T2 sequence (Q92633 whole entry, species assumed): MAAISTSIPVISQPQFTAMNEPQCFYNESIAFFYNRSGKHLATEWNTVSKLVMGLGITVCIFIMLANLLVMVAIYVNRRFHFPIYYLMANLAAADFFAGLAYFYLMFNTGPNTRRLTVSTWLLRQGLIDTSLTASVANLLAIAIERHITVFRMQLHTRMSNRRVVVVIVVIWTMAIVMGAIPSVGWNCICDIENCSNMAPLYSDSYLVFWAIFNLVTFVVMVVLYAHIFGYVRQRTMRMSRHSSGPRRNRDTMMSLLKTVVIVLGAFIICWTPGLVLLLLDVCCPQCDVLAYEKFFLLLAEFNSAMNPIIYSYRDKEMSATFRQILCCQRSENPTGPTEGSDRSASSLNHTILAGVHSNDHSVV
Experimental: as §1

[4] = Metabolic stability in mouse liver microsomes; assay type: in vitro ADME; conditions: male, CD-1, mouse, liver microsomes (pooled), 1 mg/mL protein, NADPH, 37 °C, read-out: stability (t1/2, min) MLMs
Experimental: as §2

[5] = Parallel artificial membrane permeability assay (PAMPA); assay type: in vitro ADME; conditions: PBS pH 7.4, 5 h, rt
Experimental: These studies were carried out as previously described with minor modifications.[41],[42] The assessment of the membrane permeability of synthesized compounds and propranolol and metoprolol as reference compounds was performed in a commercially available 96-well Corning Gentest precoated PAMPA plate system (Cultek S.L.U., Spain). Prior to use, the precoated PAMPA plate system was warmed to rt for 30 min and 300 μL of 200 μM solution of tested compound in 2% DMSO in PBS (pH 7.4) were added into wells in the receiver (donor) plate. Then, 200 μL of PBS were added into wells in the filter (acceptor) plate. The filter plate was placed on the receiver plate by slowly lowering the precoated PAMPA plate until it sits on the receiver plate. The assembly was incubated at rt for 5 h, and then buffer samples were collected carefully from each plate. The final concentrations of compound in both donor and acceptor wells were analyzed by HPLC-MS and quantification was estimated by using the peak area integration normalized with an internal standard. Permeability value of the compounds was calculated using the following formula: P (cm/s) = {−ln[1 – CA(t)/Ceq]}/[A(1/VD + 1/VA)t], where A = filter area (0.3 cm^2), VD = donor well volume (0.3 mL), VA = acceptor well volume (0.2 mL), t = incubation time (s), CA(t) = compound concentration (μM) in the acceptor well at time t, CD(t) = compound concentration (μM) in donor well at time t, and Ceq = [CD(t)VD + CA(t)VA]/(VD + VA). Assays were performed in duplicate, and the compound was tested in two different plates on different days.

LPA2 [6] = target: T1, LPA2; assay: Ca2+ mobilization assay, agonist activity at LPA2; assay type: cell-based; conditions: 10 μM compound
Experimental: The agonist activity at LPA2 receptors was determined at 10 μM concentration for all final compounds as previously described.[18]
Figure S1. Representative snapshots showing the lack of significant agonist activity of selected compounds. (A) 1; (B) 13; (C) 54; and (D) Ki16425. (E) Graphs show the agonist activity induced […]
stably expressing LPA2 receptor were plated on collagen-coated black-wall clear-bottom 96-well plates (Corning) at a density of 50000 cells/well and cultured overnight. The culture medium was then replaced with Fluo-4 NW dye loading solution containing 2.5 µM of probenecid and incubated […]
for 30 minutes at 37 °C followed by an additional 30 minutes at rt. Fluorescence changes were registered in a FluoStar Optima instrument (BMG Labtech) at 525 nm using an excitation wavelength of 494 nm. Each well was monitored for 240 s. 20 µL of the test compound from a 6x stock solution in assay buffer were added after 120 s of starting the measurement. Ca2+ transient increase was quantified by calculating the difference between maximum and baseline values for each […]
Graphs shown are representative of two to three independent experiments.

LPA3 [7] = target: T3, LPA3 (Homo sapiens, UniProt Q9UBY5); assay: cell-based
T3 sequence (Q9UBY5 1-353): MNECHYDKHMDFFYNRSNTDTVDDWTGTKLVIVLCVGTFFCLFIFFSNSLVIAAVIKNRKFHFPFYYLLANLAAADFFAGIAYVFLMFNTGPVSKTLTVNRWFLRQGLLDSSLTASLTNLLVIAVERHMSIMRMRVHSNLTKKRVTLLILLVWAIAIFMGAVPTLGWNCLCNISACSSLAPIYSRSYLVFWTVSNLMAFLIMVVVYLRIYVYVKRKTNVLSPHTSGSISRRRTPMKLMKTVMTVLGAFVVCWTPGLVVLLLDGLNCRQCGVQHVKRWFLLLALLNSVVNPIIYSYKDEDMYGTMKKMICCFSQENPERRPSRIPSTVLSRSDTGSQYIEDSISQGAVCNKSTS
Experimental: as §1

LPA3 [8] = target: T3, LPA3; set-up: expressed in transfected cells; conditions: cited from earlier work
LPA2 [9] = target: T1, LPA2; conditions: cited from earlier work
LPA1 [10] = target: T2, LPA1; set-up: expressed in transfected cells; conditions: cited from earlier work
[11] = maximum blockade of activation induced by 10 μM LPA (18:1) at 10 μM compound, N.E. = no effect at 10 μM

Cc1[nH]nc(-c2ccc(OCC(=O)O)cc2O)c1Oc1ccc(Cl)cc1Cl [Compound 13, {4-[4-(2,4-Dichlorophenoxy)-5-methyl-1H-pyrazol-3-yl]-3-hydroxyphenoxy}acetic Acid]
Emax at 10 µM (LPA2 [1]): 84 ± 3% | IC50 (LPA2 [1]): 5.5 µM | half-life at 5 μM [2]: ~60 min | Emax (%) LPA1 (LPA1 [3]; [11]): N.E. and N.E. ^c | melting point: > 196 °C (dec.) | half-life at 1 μM [4]: ~16 min | P (cm/s), permeability value ([5]; 200 μM): 0.1 × 10^–6 cm/s | Papp at 5 h, 200 μM ([5]; pH 7.4, PAMPA, read-out: P (cm/s), permeability value): 0.11 ×10⁻⁶ cm/s | agonist activity at LPA2 receptor (LPA2 [6]): lack | Emax (%) LPA3 (LPA3 [7]; [11]): N.E.

Cc1noc(-c2ccc(CSCCC(=O)O)cc2)c1NC(=O)OC(C)c1ccccc1Cl (centres unmarked) [Ki16425, reference compound]
IC50 (LPA3 [8]): 930 nM | Emax at 10 µM (LPA2 [1]): 92 ± 3% | IC50 (LPA2 [1]): 1.2 µM | IC50 (LPA2 [9]): 6500 nM | IC50 (LPA1 [10]): 340 nM | Emax (LPA1 [3]; read-out: Emax (%) LPA1): 97 ± 4% | IC50 (LPA1 [3]; read-out: IC50 (μM) LPA1, antagonism of 10 μM LPA, mean ± s.e.m.): 0.8 µM | agonist activity at LPA2 receptor (LPA2 [6]): lack | Emax (LPA3 [7]; read-out: Emax (%) LPA3): 99 ± 3% | IC50 (LPA3 [7]; read-out: IC50 (μM) LPA3, antagonism of 10 μM LPA, mean ± s.e.m.): 1.6 µM
